Where a name gives a salt, the structure may show the parent alone. Read-outs that look alike come from different tables or passages of the source.
Columns and labels:
[1] = molecular target: BIR3 domain of human XIAP (residues 252-350) (Homo sapiens (Human), UniProt P98170); assay: XIAP in vitro competitive displacement binding assay (fluorescence polarization); settings: for inhibition at 0.04 µM: 1 h, read-out: IC50 or PI Xiap: PI; for IC50: read-out: IC50 or PI Xiap: IC50
[2] = molecular target: BIR3 domain of human cIAP-1 (residues 267-363) (Homo sapiens (Human), UniProt Q13490); assay: cIAP-1 in vitro competitive displacement binding assay (fluorescence polarization; Probe A AVPIK(5&6FAM)-amide or Probe B AbuRPFK(5&6FAM)-amide); settings: for inhibition at […]: 3 h, read-out: IC50 or PI cIAP1: PI
[3] = system: EVSA-T (human breast carcinoma); assay: Anti-proliferative activity, Alamar Blue assay, EVSA-T; type: cell-based; settings: Homo sapiens, EVSA-T, read-out: EVSA-T prolif (EC50)
[4] = Probe B AbuRPFK(5&6FAM)-amide, read-out: IC50 or PI cIAP1: IC50

SMILES	inhibition at 0.04 µM ([1]; @ 0.04 μM)	inhibition at […] ([2]; Probe B, @ 0.012 μM)	EC50 ([3]; 72 hours, Alamar Blue)	IC50 [2]	IC50 [2, 4]	IC50 [1]	inhibition at […] [2]	EC50 ([3]; 72 h)	inhibition at 0.04 µM [1]
C[C@@H]1CN(CC(=O)N2CC(C)(C)c3cnc(C(F)(F)c4ccccc4)cc32)[C@@H](CN2CCN(C)C2=O)CN1 [Example 197, 1-{[(2R,5R)-1-(2-{6-[Difluoro(phenyl)methyl]-3,3-dimethyl-1H,2H,3H-pyrrolo[3,2-c]pyridin-1-yl}-2-oxoethyl)-5-methylpiperazin-2-yl]methyl}-3-methylimidazolidin-2-one hydrochloride]	68%	76%	49 nM						
CCC(F)(F)c1cc2c(cn1)C(C)(C)CN2C(=O)CN1C[C@@H](C)NC[C@@H]1CN1CCCC1=O [Example 198, 1-{[(2R,5R)-1-{2-[6-(1,1-Difluoropropyl)-3,3-dimethyl-1H,2H,3H-pyrrolo[3,2-c]pyridin-1-yl]-2-oxoethyl}-5-methylpiperazin-2-yl]methyl}pyrrolidin-2-one]	69%		880 nM	< 1000 nM	23 nM				
C[C@@H]1CN(CC(=O)N2CC(C)(C)c3ncc(Cc4ccc(F)cc4F)cc32)[C@@H](CN2CCOC2=O)CN1 [Example 200, 3-{[(2R,5R)-1-(2-{6-[(2,4-Difluorophenyl)methyl]-3,3-dimethyl-1H,2H,3H-pyrrolo[3,2-b]pyridin-1-yl}-2-oxoethyl)-5-methylpiperazin-2-yl]methyl}-1,3-oxazolidin-2-one dihydrochloride]						74 nM	96%	8.8 nM	
C[C@@H]1CN(CC(=O)N2CC(C)(C)c3nnc(Cc4ccc(F)cc4F)cc32)[C@@H](CN2CCCC2=O)CN1 [Example 201, 1-{[(2R,5R)-1-(2-{3-[(2,4-Difluorophenyl)methyl]-7,7-dimethyl-5H,6H,7H-pyrrolo[3,2-c]pyridazin-5-yl}-2-oxoethyl)-5-methylpiperazin-2-yl]methyl}pyrrolidin-2-one hydrochloride]		88%	5.2 nM			81 nM			
C[C@@H]1CN(CC(=O)N2CC(C)(C)c3cnc(Cc4ccc(F)cc4F)cc32)[C@@H](CN2CC[C@H](F)C2)CN1 [Example 202, 1-{6-[(2,4-Difluorophenyl)methyl]-3,3-dimethyl-1H,2H,3H-pyrrolo[3,2-c]pyridin-1-yl}-2-[(2R,5R)-2-{[(3S)-3-fluoropyrrolidin-1-yl]methyl}-5-methylpiperazin-1-yl]ethan-1-one diydrochloride]		88%				77 nM		2.1 nM	
C[C@@H]1CN(CC(=O)N2CC(C)(C)c3cnc(Cc4ccc(F)cc4F)cc32)[C@@H](CN2CC[C@@H](F)C2)CN1 [Example 203, 1-{6-[(2,4-Difluorophenyl)methyl]-3,3-dimethyl-1H,2H,3H-pyrrolo[3,2-c]pyridin-1-yl}-2-[(2R,5R)-2-{[(3R)-3-fluoropyrrolidin-1-yl]methyl}-5-methylpiperazin-1-yl]ethan-1-one dihydrochloride]						73 nM	97%	3.2 nM	
C[C@@H]1CN(CC(=O)N2CC(C)(C)c3ncc(Cc4ccc(F)cc4F)cc32)[C@@H](CN2CC[C@H](F)C2)CN1 [Example 204, 1-{6-[(2,4-Difluorophenyl)methyl]-3,3-dimethyl-1H,2H,3H-pyrrolo[3,2-b]pyridin-1-yl}-2-[(2R,5R)-2-{[(3S)-3-fluoropyrrolidin-1-yl]methyl}-5-methylpiperazin-1-yl]ethan-1-one dihydrochloride]						110 nM	91%	21 nM	
C[C@@H]1CN(CC(=O)N2CC(C)(C)c3ncc(Cc4ccc(F)cc4F)cc32)[C@@H](CN2CC[C@@H](F)C2)CN1 [Example 205, 1-{6-[(2,4-Difluorophenyl)methyl]-3,3-dimethyl-1H,2H,3H-pyrrolo[3,2-b]pyridin-1-yl}-2-[(2R,5R)-2-{[(3R)-3-fluoropyrrolidin-1-yl]methyl]-5-methylpiperazin-1-yl]ethan-1-one hydrochloride]		97%	19 nM			100 nM			
Cc1nc(C)n(C[C@H]2CN[C@H](C)CN2CC(=O)N2CC(C)(C)c3cnc(Cc4ccc(F)cc4F)cc32)n1 [Example 206, 1-{6-[(2,4-Difluorophenyl)methyl]-3,3-dimethyl-1H,2H,3H-pyrrolo[3,2-c]pyridin-1-yl}-2-[(2R,5R)-2-[(dimethyl-1H-1,2,4-triazol-1-yl)methyl]-5-methylpiperazin-1-yl]ethan-1-one hydrochloride]		97%	1.7 nM			79 nM			
C[C@@H]1CN(CC(=O)N2CC(C)(C)c3cnc(Cc4ccc(F)cc4F)cc32)[C@@H](CN2CCC(=O)C2)CN1 [Example 207, 1-{[(2R,5R)-1-(2-{6-[(2,4-Difluorophenyl)methyl]-3,3-dimethyl-1H,2H,3H-pyrrolo[3,2-c]pyridin-1-yl}-2-oxoethyl)-5-methylpiperazin-2-yl]methyl}pyrrolidin-3-one dihydrochloride]						57 nM	98%	4 nM	
C[C@@H]1CN(CC(=O)N2CC(C)(C)c3cnc(Cc4ccc(F)cc4F)cc32)[C@@H](CN2CCC(F)(F)C2)CN1 [Example 208, 1-{6-[(2,4-Difluorophenyl)methyl]-3,3-dimethyl-1H,2H,3H-pyrrolo[3,2-c]pyridin-1-yl}-2-[(2R,5R)-2-[(3,3-difluoropyrrolidin-1-yl)methyl]-5-methylpiperazin-1-yl]ethan-1-one dihydrochloride]						64 nM	99%	4 nM	
C[C@@H]1CN(CC(=O)N2CC(C)(C)c3cnc(Cc4ccc(F)cc4F)cc32)[C@@H](CN2CCOC2=O)CN1 [Example 209, 3-{[(2R,5R)-1-(2-{6-[(2,4-Difluorophenyl)methyl]-3,3-dimethyl-1H,2H,3H-pyrrolo[3,2-c]pyridin-1-yl}-2-oxoethyl)-5-methylpiperazin-2-yl]methyl}-1,3-oxazolidin-2-one dihydrochloride]						47 nM	90%	19 nM	
CC(C)C(F)(F)c1cc2c(cn1)C(C)(C)CN2C(=O)CN1C[C@@H](C)NC[C@@H]1CN1CCCC1=O [Example 211, 1-{[(2R,5R)-1-{2-[6-(1,1-Difluoro-2-methylpropyl)-3,3-dimethyl-1H,2H,3H-pyrrolo[3,2-c]pyridin-1-yl]-2-oxoethyl}-5-methylpiperazin-2-yl]methyl}pyrrolidin-2-one hydrochloride]			630 nM	< 1000 nM	22 nM	46 nM			
C[C@@H]1CN(CC(=O)N2CC(C)(C)c3cnc(C(F)(F)C4CC4)cc32)[C@@H](CN2CCCC2=O)CN1 [Example 212, 1-{[(2R,5R)-1-{2-[6-(Cyclopropyldifluoromethyl)-3,3-dimethyl-1H,2H,3H-pyrrolo[3,2-c]pyridin-1-yl]-2-oxoethyl}-5-methylpiperazin-2-yl]methyl}pyrrolidin-2-one hydrochloride]			270 nM	< 1000 nM	14 nM	45 nM			
C[C@@H]1CN(CC(=O)N2CC(C)(C)c3cnc(C(F)(F)c4ccccc4)cc32)[C@@H](CN2CC[C@@H](F)C2)CN1 [Example 213, 1-{6-[Difluoro(phenyl)methyl]-3,3-dimethyl-1H,2H,3H-pyrrolo[3,2-c]pyridin-1-yl}-2-[(2R,5R)-2-{[(3R)-3-fluoropyrrolidin-1-yl]methyl]-5-methylpiperazin-1-yl]ethan-1-one dihydrochloride]			6 nM				82%		61%
CCC(F)(F)c1cc2c(cn1)C(C)(C)CN2C(=O)CN1C[C@@H](C)NC[C@@H]1CN1CC[C@@H](F)C1 [Example 214, 1-[6-(1,1-Difluoropropyl)-3,3-dimethyl-1H,2H,3H-pyrrolo[3,2-c]pyridin-1-yl]-2-[(2R,5R)-2-{[(3R)-3-fluoropyrrolidin-1-yl]methyl]-5-methylpiperazin-1-yl]ethan-1-one hydrochloride]			190 nM	< 1000 nM	24 nM	82 nM			
C[C@@H]1CN(CC(=O)N2CC(C)(C)c3cnc(C(F)(F)c4ccccc4)cc32)[C@@H](CN2C(=O)CCC2=O)CN1 [Example 218, 1-{[(2R,5R)-1-(2-{6-[Difluoro(phenyl)methyl]-3,3-dimethyl-1H,2H,3H-pyrrolo[3,2-c]pyridin-1-yl}-2-oxoethyl)-5-methylpiperazin-2-yl]methyl}pyrrolidine-2,5-dione dihydrochloride]						61 nM	78%	65 nM	
C[C@@H]1CN(CC(=O)N2CC(C)(C)c3cnc(Cc4ccc(F)cc4F)cc32)[C@@H](CN2CCOCC2)CN1 [Example 219, 1-{6-[(2,4-Difluorophenyl)methyl]-3,3-dimethyl-1H,2H,3H-pyrrolo[3,2-c]pyridin-1-yl}-2-[(2R,5R)-5-methyl-2-(morpholin-4-ylmethyl)piperazin-1-yl]ethan-1-one dihydrochloride]						53 nM	93%	5 nM	
C[C@@H]1CN(CC(=O)N2CC(C)(C)c3ncc(C(F)(F)c4ccccc4)cc32)[C@@H](CN2CC[C@@H](F)C2)CN1 [Example 221, 1-{6-[Difluoro(phenyl)methyl]-3,3-dimethyl-1H,2H,3H-pyrrolo[3,2-b]pyridin-1-yl}-2-[(2R,5R)-2-{[(3R)-3-fluoropyrrolidin-1-yl]methyl}-5-methylpiperazin-1-yl]ethan-1-one dihydrochloride]						73 nM	78%	54 nM	
